Results as given in publication PMC5964640, “Pharmacological effects of N-[2-[[2-[2-[(2,6-dichlorophenyl)amino]phenyl]acetyl]oxy]ethyl]hyaluronamide (diclofenac Etalhyaluronate, SI-613), a novel sodium hyaluronate derivative chemically linked with diclofenac” (BMC Musculoskeletal Disorders, 2018).
“And” between values parts separate entries of the source, which are not always exact repeats. Identical values can stand only once.

Tests used:
[1] = Distribution of DF in knee tissues after a single administration, short-term study (LC-MS/MS); format: in vivo, rabbit; conditions: individual animals, free DF
Procedure: Two days after the induction of arthritis, 5 mg/joint SI-613, a mixture of 0.59 mg/joint DF-Na and 5 mg/joint HA (DF-Na + HA), or PBS was administered to the knee joint cavity at a volume of 500 μL/joint. DF-Na was orally administered at a dose of 2 mg/kg. The concentrations of free DF in the synovium and synovial lavage fluid were measured by high performance liquid chromatography coupled with tandem mass spectrometry (LC-MS/MS) at 3 and 72 h after a single IA administration and after a single oral administration of the test materials, respectively. Moreover, plasma concentrations of DF were determined to compare the systemic exposure of DF after the administration of SI-613 with that of the other compounds. The synovium was homogenized in 40-fold volume (40 mL for 1 g tissue) of 10 mM ammonium formate (pH 6.0)/methanol (3:2, v/v) on an ice bath. Then, free DF in the homogenate was extracted with tert-butyl methyl ether-1% acetic acid (6:1, v/v). Free DF in the synovial fluid or plasma was adsorbed to an Oasis HLB cartridge (30 mg/1 cm^3, Waters Corporation, Milford, MA) and eluted with methanol. The internal standard of deuterium-labeled diclofenac (diclofenac-d7) was added to each sample. The extract was loaded onto a CAPCELL PAK C18 MG HPLC column (Shiseido Co. Ltd., Tokyo, Japan, column size: 4.6 mm × 35 mm, particle size: 5 μm) at 40 °C, and eluted with 10 mM ammonium formate (pH 6.0)/methanol (2:3, v/v) at a flow rate of 0.5 mL/minute. For mass detection, we used a QTRAP® 5500 System (AB SCIEX, Framingham, MA) equipped with an electrospray ionization (ESI) source in positive ions in multiple reaction monitoring (MRM) mode. Linear calibration (r > 0.999) was attained at 5–1000 ng/g for the synovium and at 1–200 ng/mL for the synovial fluid and plasma.

[2] = system: PGE2 content in the SF; test: PGE2 content in the SF of rabbits with antigen-induced arthritis; format: in vivo, rabbit; conditions: for production of PGE2 in the SF, group comparison: 72 h after administration
Procedure: To prepare the anesthetic, saline (2 mL), midazolam (1 mL, 5 mg/mL, Astellas Pharma Inc., Tokyo, Japan), xylazine (2 mL, 0.02 g/mL, Bayer Medical Ltd., Tokyo, Japan), and butorphanol tartrate (1 mL, 5 mg/mL, Meiji Seika Kaisha, Ltd., Tokyo, Japan) were mixed. The anesthetic was administered intravenously to each animal at a volume of 1 mL/body. OVA (Sigma-Aldrich Co., St. Louis, MO) emulsion with Freund's complete adjuvant (FCA; CAPPEL Laboratories Inc., Cochranville, PA) was injected intradermally into the backs of 80 male rabbits at a dose of 5 mg/animal twice at an interval of 13 or 14 days. Twenty-three days after the first immunization, 1% OVA solution was injected in the joint cavities of the left hindlimb at a volume of 500 μL/joint to induce arthritis. […] Animals were sacrificed by exsanguination under 2% isoflurane anesthesia 3 and 72 h after administration, respectively. The SF was collected by washing the joint cavity twice with saline (Otsuka Pharmaceutical Factory, Inc.) containing 20 μg/mL of indomethacin ([…] K. K.) at 3 or 72 h after the administration of the test materials. The PGE2 content in the SF was determined as a mechanism biomarker for the anti-inflammatory effect using a High Sensitivity Prostaglandin E2 Enzyme Immunoassay Kit (Assay Designs Inc.).

[3] = Plasma DF concentrations of rabbits with antigen-induced arthritis; format: in vivo, rabbit
Procedure: Arthritis was induced in the 12 rabbits as described above. Two days after the induction of arthritis, 5 mg/joint SI-613, a mixture of 0.59 mg/joint DF-Na and 5 mg/joint HA (DF-Na + HA), or PBS was administered to the knee joint cavity at a volume of 500 μL/joint. DF-Na was orally administered at a dose of 2 mg/kg. The concentrations of free DF in the synovium and synovial lavage fluid were measured by high performance liquid chromatography coupled with tandem mass spectrometry (LC-MS/MS) at 3 and 72 h after a single IA administration and after a single oral administration of the test materials, respectively. Moreover, plasma concentrations of DF were determined to compare the systemic exposure of DF after the administration of SI-613 with that of the other compounds. The synovium was homogenized in 40-fold volume (40 mL for 1 g tissue) of 10 mM ammonium formate (pH 6.0)/methanol (3:2, v/v) on an ice bath. Then, free DF in the homogenate was extracted with tert-butyl methyl ether-1% acetic acid (6:1, v/v). Free DF in the synovial fluid or plasma was adsorbed to an Oasis HLB cartridge (30 mg/1 cm^3, Waters Corporation, Milford, MA) and eluted with methanol. The internal standard of deuterium-labeled diclofenac (diclofenac-d7) was added to each sample. The extract was loaded onto a CAPCELL PAK C18 MG HPLC column (Shiseido Co. Ltd., Tokyo, Japan, column size: 4.6 mm × 35 mm, particle size: 5 μm) at 40 °C, and eluted with 10 mM ammonium formate (pH 6.0)/methanol (2:3, v/v) at a flow rate of 0.5 mL/minute. For mass detection, we used a QTRAP® 5500 System (AB SCIEX, Framingham, MA) equipped with an electrospray ionization (ESI) source in positive ions in multiple reaction monitoring (MRM) mode. Linear calibration (r > 0.999) was attained at 5–1000 ng/g for the synovium and at 1–200 ng/mL for the synovial fluid and plasma. The extraction efficiencies of diclofenac were 84.2–92.9% for the synovium, 95.2–100.3% for the synovial fluid, and 94.2–96.5% for the plasma.
Time for calculation of area under the DF plasma concentration-time curve (AUC0-t), t (day), was the latest time point at which DF was quantifiable. The half-life (T1/2) was determined by semi-log plotting the data of at least three time points after Tmax.

[4] = system: PGE2 content in the synovial fluid; test: PGE2 content in the synovial fluid of silver nitrate-induced arthritic rats; format: in vivo, rat
Procedure: In addition, the prostaglandin E2 (PGE2) content, which plays a critical role in inducing inflammation and pain associated with arthritis, was determined in the synovial fluid (SF). Briefly, SI-613 (0.5 mg/joint) or PBS was administered into the joint cavity of the left hindlimb. After assessing the severity of pain, animals were sacrificed by exsanguination under 2% isoflurane anesthesia 1, 2 and 3 days after administration, respectively. The SF was collected by washing the joint cavity with saline (Otsuka Pharmaceutical Factory, Inc.) containing indomethacin (Indacin, MSD K. K., Tokyo, Japan), which was effective to prevent joint puncturing-induced production of PGE2 (unpublished result). The PGE2 content in the SF was measured with a High Sensitivity PGE2 Correlate-EIA kit (Assay Designs Inc., Ann Arbor, MI).

[5] = DF in knee tissues after a single IA administration of SI-613, long-term study (LC-MS/MS); format: in vivo, rabbit; conditions: single IA 5 mg/joint
Procedure: Arthritis was induced in the 24 rabbits as described above. Two days after the induction of arthritis in the rabbits, 5 mg/joint SI-613 or PBS was administered at a volume of 500 μL/joint into the knee joint cavity. Concentrations of DF in the synovium and synovial lavage fluid were measured by LC-MS/MS on days 1, 3, 7, 14, 21, 28, 35, and 42 after a single IA administration.

[6] = system: antigen-induced arthritic rabbits; test: Knee joint swelling of antigen-induced arthritic rabbits (long-lasting anti-inflammatory effect); format: in vivo, rabbit; conditions: single IA 5 mg/joint
Procedure: The duration and efficacy of the anti-inflammatory effect of SI-613 was studied in OVA-induced arthritis rabbits. Two days after the arthritis induction, the knee joint diameter in all 60 rabbits was measured with a digital thickness gauge (Teclock Corp., Nagano, Japan). The joint swelling was expressed as the difference in millimeters between the inflamed (left) and non-inflamed (right) knee joint diameters. The same researcher evaluated the knee joint swelling on all groups on all days. Fifteen animals (knee joint swelling was not more than 7.30 mm) and 5 animals (knee joint swelling was not less than 10.40 mm) were excluded. Forty animals were divided into two groups of 20 animals each by the stratified random sampling method based on the knee joint swelling and body weight of the day, and were administered with 5 mg/joint SI-613 or PBS at a volume of 500 μL/joint into the joint cavities. The knee joint swelling was evaluated the day before (day 0), and on days 1, 3, 7, 14, 21, 28, 35, and 42 after a single injection of the test materials. The knee joint swelling was expressed as the difference in the width of the right and left knee joint.

[7] = system: silver nitrate-induced arthritic rats; test: Rat model of silver nitrate-induced arthritic pain (pain score, weight-bearing rate); format: in vivo
Description: The silver nitrate-induced arthritic pain model is known as a subacute arthritis model, in which the inflammatory response and pain last for at least 3 days following injury. This model involves the activation of prostaglandin pathways and has been used for evaluating the analgesic effects of various NSAIDs or kappa-opioid receptor agonist. Overall, 136 male Sprague-Dawley (SD) rats were obtained from Charles River Laboratories Japan Inc. General anesthesia was maintained by the inhalation of isoflurane (Forane; Dainippon Sumitomo Pharma Co., Ltd., Osaka, Japan). Silver nitrate solution (1%, Wako Pure Chemical Industries, Ltd., Osaka, Japan) at a volume of 50 μL/joint was injected in the knee joint cavity of the left hindlimbs of rats. Animals with no abnormalities were allocated to four groups in each study based on the weight-bearing rate of the inflamed joints and pain score at the time of allocation, by using stratified continuous randomization. Test substances were administered on the day following the arthritis induction. In the first study, SI-613 (contents of DF; 11.8% (w/w), manufactured by Seikagaku Corporation, Tokyo, Japan) at doses of 0.05, 0.15, and 0.5 mg/50 μL/joint (5.9, 17.7, and 59 μg/joint in DF equivalent) or phosphate-buffered saline (PBS) was once injected into the joint cavities of the left hindlimbs for the dose-response assessments.
In the second study, SI-613 (0.5 mg/joint, 59 μg/joint in DF equivalent), HA (0.5 mg/joint, Seikagaku Corporation), a mixture of DF-Na (59 μg/joint, Wako Pure Chemical Industries, Ltd.) and HA (0.5 mg/joint) (DF-Na + HA), or PBS was administered in the same manner for the proof of concept. The doses of DF-Na and HA were set at those of respective components in SI-613 formulation. The DF-Na solution (1 mg/mL) was prepared using the Water for Injection (Otsuka Pharmaceutical Factory, Inc., Tokyo, Japan) and administered orally at a dose of 2 mg/kg (approximately 0.3 mg/body) once daily for 3 days. The oral DF-Na dose, 2 mg/kg, was set in accordance with the dose for adult humans with a body weight of 50 kg, on the assumption that the maximum daily dose in clinical practice administered to patients with OA or rheumatoid arthritis would be 100 mg. It has been reported that DF-Na exerted anti-inflammatory effects in rats when administered at this dose.
Pain was assessed under blinded conditions by scoring pain-related behaviors based on the following criteria and measuring the weight-bearing rates of hindlimbs with a load-measuring device (Tokken Inc., Chiba, Japan) at a same time each day for 3 days after the injection of the test materials.
The criteria for assigning pain scores were as follows: 0; normal, 1; mild claudication with lifting the foot, 2; severe claudication with completely closing the toe, 3; walking on three legs. The weight-bearing rate was calculated using the following formula:
Weight-bearing rate (%) = Mean weight-bearing load on inflamed leg (g) / Body weight (g) × 100.

[8] = sampling point 72 h, oral 2 mg/kg or single IA
[9] = sampling point 72 h, oral 2 mg/kg or single IA, 2 mg/kg
[10] = second study, single IA 0.5 mg/joint, compared with PBS, HA, DF-Na + HA or repeated oral DF-Na

O=C(O)Cc1ccccc1Nc1c(Cl)cccc1Cl [DF-Na, diclofenac sodium]
Concentration of DF Synovial lavage fluid ([1]; sampling point 3 h): 124.6 ng/mL fluid and 58.23 ng/mL fluid and 45.66 ng/mL fluid | Concentration of DF Synovium ([1]; sampling point 3 h): 155.8 ng/g tissue and 52.88 ng/g tissue and 75.83 ng/g tissue | Concentration of DF Synovial lavage fluid [1, 8]: BLQ2 (< 1 ng of DF per mL of synovial lavage fluid) | Concentration of DF Synovium [1, 8]: BLQ1 (below limit of quantification, < 5 ng/g) | mean PGE2 content in the SF ([2]; 3 h after administration, DF-Na oral 2 mg/kg): 3767 pg/joint | production of PGE2 in the SF compared with the control group ([2]; 3 h after administration, oral 2 mg/kg): significantly suppressed | production of PGE2 in the SF, group comparison [2]: No significant differences | AUC(0-inf) ([3]; rabbit, plasma, po, 2 mg/kg, mean ± SD, read-out: AUC0-∞ of DF in plasma): 4130 ng·h/mL | half-life ([3]; rabbit, plasma, po, 2 mg/kg, mean ± SD, read-out: t1/2 of DF in plasma (converted)): 12.8 h | Tmax ([3]; rabbit, plasma, po, 2 mg/kg, same groups, mean ± SD): 2.4 ± 3.2 h | AUC(0-t) ([3]; rabbit, plasma, po, 2 mg/kg, t = latest time point at which DF was quantifiable, mean ± SD, read-out: AUC0-t of DF in plasma): 4690 ± 1900 ng·h/mL | Cmax ([3]; rabbit, plasma, DF-Na oral 2 mg/kg, mixture DF-Na 0.59 mg + HA 5 mg/joint IA, SI-613 5 mg/joint IA, mean ± SD): 621 ± 372 ng/mL

N-[2-[[2-[2-[(2,6-dichlorophenyl)amino]phenyl]acetyl]oxy]ethyl]hyaluronamide [SI-613]
PGE2 content in the SF vs control ([4]; IA 0.5 mg/joint, days 1, 2 and 3): lower PGE2 content than the control group | PGE2-inhibitory effect, statistical significance vs control ([4]; rat model, 72 h after administration): no statistically significant difference | Concentration of DF Synovial lavage fluid [1, 9]: 60.64 ng/mL fluid and 38.82 ng/mL fluid and 1540 ng/mL fluid | Concentration of DF Synovium [1, 9]: 15.23 ng/g tissue and 45.47 ng/g tissue and 351.1 ng/g tissue | mean amount of DF in the joint cavity lavage fluid ([5]; day 21): 5.940 ng/joint | DF in the joint cavity lavage fluid ([5]; day 28): < 1 ng of DF per mL of synovial lavage fluid | mean DF concentration in the synovium ([5]; day 28): 9.754 ng/g | knee joint swelling compared with the control ([6]; day 1 until day 28): significantly decreased | knee joint swelling compared with the control ([6]; day 35 and day 42): no significant difference | analgesic effect (pain score) ([7]; PGE2 study, IA 0.5 mg/joint, days 1, 2 and 3): confirmed each day | pain behavioral score ([7]; first study, single IA 0.05, 0.15 and 0.5 mg/joint, vs control (PBS), mean of 3 days): improved the pain behavioral scores significantly | weight-bearing rate ([7]; first study, single IA 0.15 and 0.5 mg/joint, vs control, mean of 3 days): significantly increased the weight-bearing rates | pain behavioral score [7, 10]: significantly improved the pain behavioral score | weight-bearing rate [7, 10]: increased the weight-bearing rate | production of PGE2 in the SF, group comparison [2]: significantly suppressed | plasma AUC0-t of DF, times smaller than DF-Na + HA group (IA) ([3]; SI-613 IA vs DF-Na + HA IA): 16 times | plasma Cmax of DF, times lower than DF-Na + HA group (IA) ([3]; SI-613 IA vs DF-Na + HA IA): 94 times | plasma AUC0-t of DF, times smaller than DF-Na group (oral) ([3]; SI-613 IA vs DF-Na oral): 187 times | plasma Cmax of DF, times lower than DF-Na group (oral) ([3]; SI-613 IA vs DF-Na oral): 462 times
